The text below walks through data of ChEMBL document CHEMBL4699584, “Bioassay-Directed Isolation of Antibacterial Metabolites from an Arthropod-Derived Penicillium chrysogenum” (2020).

Type in all cases: functional
The subject of experiment [1] is Staphylococcus aureus. Description: Antibacterial activity against methicillin-resistant Staphylococcus aureus assessed as reduction in microbial growth by broth microdilution method.
Experiment [2] concerns Enterococcus faecalis. The experiment can be described thus: Antibacterial activity against Enterococcus faecalis assessed as reduction in microbial growth by broth microdilution method.
For experiment [3], the system named is Escherichia coli. Description: Antibacterial activity against ESBL producing Escherichia coli assessed as reduction in microbial growth by broth microdilution method.

Regarding `C[C@H]1[C@@H]2O[C@@H]2C(=O)[C@]2(C)CC[C@H]3[C@H]4[C@](C)(CC[C@]4(C)C(=O)O)C[C@]132`, the MIC came to 4 µg/mL in experiment [1], 32 µg/mL in experiment [2] and 32 µg/mL in experiment [3].

In the case of `C[C@H]1C=CC(=O)[C@]2(C)CC[C@H]3[C@@H]4C(CO)(CO)CC[C@]4(C)C[C@]132`, the MIC turned out to be 2 µg/mL in experiment [1], 32 µg/mL in experiment [2] and 32 µg/mL in experiment [3].
